One block for each substance: values may come before it. The source made the active and inactive calls. The rule behind the calls is not given here.
Key:
[1] = system: Escherichia coli; experiment: Antibacterial activity against Escherichia coli BW25113 assessed as prevention visible bacterial growth incubated for 18 hrs; assay type: functional; conditions: BW25113, 18 h
[2] = system: Escherichia coli; experiment: Induction of membrane permeabilization in Escherichia coli BW25113 at 1 to 16 uM incubated for 30 mins by propidium iodide uptake based flow cytometry; assay type: functional, organism-based
[3] = system: Escherichia coli; experiment: Antibacterial activity against Escherichia coli clinical isolates assessed as prevention visible bacterial growth incubated for 18 hrs; assay type: functional
[4] = system: Staphylococcus aureus; experiment: Bactericidal activity against Staphylococcus aureus ATCC 25923 assessed as prevention visible bacterial growth incubated for 18 hrs; assay type: functional; conditions: ATCC 25923, 18 h
[5] = system: Acinetobacter baumannii; experiment: Bactericidal activity against Acinetobacter baumannii ATCC 19606 assessed as prevention visible bacterial growth incubated for 18 hrs; assay type: functional; conditions: ATCC 19606 = CIP 70.34 = JCM 6841, 18 h
[6] = system: Escherichia coli; experiment: Induction of membrane permeabilization in Escherichia coli BW25113 at 1 to 16 uM incubated for 30 mins by ONPG/beta-galactosidase assay; assay type: functional, organism-based
[7] = Cytotoxicity in human MEC1 cells assessed as reduction in cell viability incubated for 20 hrs by MTT assay; assay type: cell-based
[8] = system: Escherichia coli; experiment: Antibacterial activity against Escherichia coli ATCC 25922 assessed as prevention visible bacterial growth incubated for 18 hrs in presence of 10% (v/v) human serum in full MH medium; assay type: functional; conditions: ATCC 25922, 18 h
[9] = system: Klebsiella pneumoniae; experiment: Antibacterial activity against Klebsiella pneumoniae 700603 assessed as prevention visible bacterial growth incubated for 18 hrs; assay type: functional; conditions: Klebsiella pneumoniae, 700603, 18 h
[10] = system: Staphylococcus aureus; experiment: Antibacterial activity against Staphylococcus aureus ATCC 25923 assessed as prevention visible bacterial growth incubated for 18 hrs; assay type: functional; conditions: ATCC 25923, 18 h
[11] = system: Acinetobacter baumannii; experiment: Antibacterial activity against Acinetobacter baumannii ATCC 19606 assessed as prevention visible bacterial growth incubated for 18 hrs; assay type: functional; conditions: ATCC 19606 = CIP 70.34 = JCM 6841, 18 h
[12] = system: Escherichia coli; experiment: Antibacterial activity against Escherichia coli ATCC 25922 assessed as prevention visible bacterial growth incubated for 18 hrs; assay type: functional; conditions: ATCC 25922, 18 h
[13] = system: Escherichia coli; experiment: Bactericidal activity against Escherichia coli BW25113 expressing delta sbmA mutation assessed as prevention visible bacterial growth incubated for 18 hrs; assay type: functional; conditions: BW25113, 18 h
[14] = system: Pseudomonas aeruginosa; experiment: Bactericidal activity against Pseudomonas aeruginosa ATCC 27853 assessed as prevention visible bacterial growth incubated for 18 hrs; assay type: functional; conditions: ATCC 27853, 18 h
[15] = system: Escherichia coli; experiment: Inhibition of in-vitro transcription/translation in Escherichia coli lysates at 1 uM incubated for 1 hr by luciferase reporter gene assay relative to control; assay type: functional
[16] = system: Escherichia coli; experiment: Bactericidal activity against Escherichia coli BW25113 assessed as prevention visible bacterial growth incubated for 18 hrs; assay type: functional; conditions: BW25113, 18 h
[17] = system: Escherichia coli; experiment: Induction of membrane permeabilization in Escherichia coli BW25113 at 1 to 2 uM incubated for 30 mins by ONPG/beta-galactosidase assay; assay type: functional, organism-based
[18] = system: Escherichia coli; experiment: Bactericidal activity against Escherichia coli ATCC 25922 assessed as prevention visible bacterial growth incubated for 18 hrs; assay type: functional; conditions: ATCC 25922, 18 h
[19] = system: Pseudomonas aeruginosa; experiment: Antibacterial activity against Pseudomonas aeruginosa ATCC 27853 assessed as prevention visible bacterial growth incubated for 18 hrs; assay type: functional; conditions: ATCC 27853, 18 h
[20] = system: Klebsiella pneumoniae; experiment: Bactericidal activity against Klebsiella pneumoniae 700603 assessed as prevention visible bacterial growth incubated for 18 hrs; assay type: functional; conditions: Klebsiella pneumoniae, 700603, 18 h
[21] = system: Escherichia coli; experiment: Antibacterial activity against Escherichia coli BW25113 expressing delta sbmA mutation assessed as prevention visible bacterial growth incubated for 18 hrs; assay type: functional; conditions: BW25113, 18 h
[22] = system: Escherichia coli; experiment: Induction of membrane permeabilization in Escherichia coli BW25113 at 16 uM incubated for 30 mins by ONPG/beta-galactosidase assay relative to 1 uM colistin; assay type: functional
[23] = system: Escherichia coli; experiment: Ratio of MIC for antibacterial activity against Escherichia coli BW25113 expressing delta sbmA mutation to MIC for antibacterial activity against wild type Escherichia coli BW25113; assay type: functional
[24] = system: Escherichia coli; experiment: Induction of membrane permeabilization in Escherichia coli BW25113 at 8 to 16 uM incubated for 30 mins by ONPG/beta-galactosidase assay; assay type: functional, organism-based
[25] = system: Escherichia coli; experiment: Ratio of MBC for antibacterial activity against Escherichia coli BW25113 expressing delta sbmA mutation to MBC for antibacterial activity against wild type Escherichia coli BW25113; assay type: functional
[26] = system: Escherichia coli; experiment: Induction of membrane permeabilization in Escherichia coli BW25113 at 8 to 16 uM incubated for 30 mins by propidium iodide uptake based flow cytometry; assay type: functional, organism-based
[27] = system: Escherichia coli; experiment: Induction of membrane permeabilization in Escherichia coli BW25113 at 4 uM incubated for 30 mins by propidium iodide uptake based flow cytometry; assay type: functional, organism-based
[28] = system: Escherichia coli; experiment: Antibacterial activity against Escherichia coli isolate EURL-VTEC C07 assessed as prevention visible bacterial growth incubated for 18 hrs; assay type: functional; conditions: isolate EURL-VTEC C07, 18 h
[29] = system: Escherichia coli; experiment: Induction of membrane permeabilization in Escherichia coli BW25113 at 4 uM incubated for 30 mins by ONPG/beta-galactosidase assay; assay type: functional, organism-based

Substance: H-RRIRPRPPRLSRPRPR-OH
MIC99 [1]: 32 µM

Substance: H-RRIRPRPPRLWRPRPR-OH
MIC99 [1]: 8 µM

Substance: H-RRIRPRPPRRPRPRPR-OH
MIC99 [1]: 32 µM

Substance: H-RRIRPRPPRWPRPRPR-OH
MIC99 [1]: 16 µM

Substance: H-RRIRPRPSRLPRPRPR-OH
MIC99 [1]: 16 µM

Substance: H-RRIRPRPWRLPRPRPR-OH
MIC99 [1]: 4 µM

Substance: H-RRIRPRRPRLPRPRPR-OH
MIC99 [1]: 8 µM

Substance: H-RRIRPRWPRLPRPRPR-OH
MIC99 [1]: 4 µM

Substance: H-RRIRPSPPRLPRPRPR-OH
MIC99 [1]: 32 µM

Substance: H-RRISPRPPRLPRPRPR-OH
MIC99 [1]: 32 µM

Substance: H-RRIWPRPPRLPRPRPR-OH
MIC99 [1]: 8 µM

Substance: H-RRSRPRPPRLPRPRPR-OH
MIC99 [1]: 16 µM

Substance: H-RRWRPRPPRLPRPRPR-OH
MIC99 [1]: 4 µM

Substance: H-SRIRPRPPRLPRPRPR-OH
MIC99 [1]: 16 µM

Substance: H-WRIRPRPPRLPRPRPR-OH
MIC99 [1]: 1 to 2 µM
Activity [2]: inactive
MIC99 [3]: > 1 µM
MBC [4]: > 64 µM
MBC [5]: 64 µM
Activity [6]: inactive
CC50 at 20 h [7]: > 64 µM
MIC [8]: 1 µM
MIC99 [9]: 16 µM
MIC99 [10]: > 64 µM
MIC99 [11]: 32 µM
MIC99 [12]: 1 µM
MBC [13]: 32 µM
MBC [14]: > 64 µM
inhibition [15]: Active
MBC [16]: 1 µM
Activity [17]: inactive
MBC [18]: 2 µM
MIC99 [19]: > 64 µM
MBC [20]: 64 µM
MIC99 [21]: 12 µM

Substance: H-WRIRPRPPRLPRWRPR-OH
MIC99 [1]: 2 µM
MIC99 [3]: > 1 µM
MBC [4]: > 64 µM
MBC [5]: 64 µM
CC50 at 20 h [7]: > 64 µM
MIC [8]: 2 µM
MIC99 [9]: 8 µM
MIC99 [10]: > 64 µM
MIC99 [11]: 32 µM
MIC99 [12]: 1.5 µM
MBC [13]: 32 µM
MBC [14]: > 64 µM
inhibition [15]: Active
MBC [16]: 4 µM
Activity [17]: inactive
MBC [18]: 2 µM
MIC99 [19]: > 64 µM
MBC [20]: 32 µM
MIC99 [21]: 16 µM

Substance: H-WRIRRRPPRLPRPRWR-OH
MIC99 [1]: 1 µM
MIC99 [3]: > 1 µM
MBC [4]: > 64 µM
MBC [5]: 32 µM
Activity [22]: 30%
CC50 at 20 h [7]: > 64 µM
Ratio [23]: 2 - 4
MIC [8]: 6 µM
Activity [24]: Active
MIC99 [9]: 4 µM
MIC99 [10]: 32 µM
MIC99 [11]: 32 µM
MIC99 [12]: 1 µM
MBC [13]: 4 µM
MBC [14]: 64 µM
inhibition [15]: Active
MBC [16]: 8 µM
Activity [17]: inactive
Ratio [25]: 2 - 4
MBC [18]: 2 µM
MIC99 [19]: 64 µM
MBC [20]: 32 µM
MIC99 [21]: 3 µM
Activity [26]: Active

Substance: H-WRIRRRWPRLPRPRWR-OH
MIC99 [1]: 2 µM
MIC99 [3]: > 1 µM
MBC [4]: > 64 µM
Activity [27]: Active
MBC [5]: 8 µM
Activity [22]: 30%
CC50 at 20 h [7]: > 64 µM
Ratio [23]: 2 - 4
MIC [8]: 3 µM
Activity [24]: Active
MIC99 [28]: 2 µM
MIC99 [9]: 2 µM
MIC99 [10]: 12 µM
MIC99 [11]: 4 µM
MIC99 [12]: 1 µM
Activity [29]: Active
MBC [13]: 4 µM
MBC [14]: > 64 µM
inhibition [15]: Active
MBC [16]: 4 µM
Activity [17]: inactive
Ratio [25]: 2 - 4
MBC [18]: 2 µM
MIC99 [19]: 32 µM
MBC [20]: 8 µM
MIC99 [21]: 4 µM
Activity [26]: Active

Next, values leading:

MIC99 [1]: 8 µM
Substance: H-RRIRPRPPRLPWPRPR-OH

MIC99 [1]: 16 µM
Substance: H-RRIRPRPPRLRRPRPR-OH

MIC99 [1]: 64 µM
Substance: H-RRIRPRPPRPPRPRPR-OH

MIC99 [1]: 32 µM
Substance: H-RRIRPRPPRSPRPRPR-OH

MIC99 [1]: 32 µM
Substance: H-RRIRPRPPSLPRPRPR-OH

MIC99 [1]: 4 µM
Substance: H-RRIRPRPPWLPRPRPR-OH

MIC99 [1]: 16 µM
Substance: H-RRIRPRPRRLPRPRPR-OH

MIC99 [1]: 16 µM
Substance: H-RRIRPRSPRLPRPRPR-OH

MIC99 [1]: 8 µM
Substance: H-RRIRPWPPRLPRPRPR-OH

MIC99 [1]: 8 µM
Substance: H-RRIRRRPPRLPRPRPR-OH

MIC99 [1]: 16 µM
Substance: H-RRIRSRPPRLPRPRPR-OH

MIC99 [1]: 4 µM
Substance: H-RRIRWRPPRLPRPRPR-OH

MIC99 [1]: 8 µM
Substance: H-RRRRPRPPRLPRPRPR-OH

MIC99 [1]: 16 µM
Substance: H-RSIRPRPPRLPRPRPR-OH

MIC99 [1]: 8 µM
Substance: H-RWIRPRPPRLPRPRPR-OH

Reference: ChEMBL document CHEMBL4622980, “Peptide Inhibitors of Bacterial Protein Synthesis with Broad Spectrum and SbmA-Independent Bactericidal Activity against Clinical Pathogens” (J Med Chem, 2020)
